Where a name gives a salt, the structure may show the parent alone.
| SMILES | melting point |
| --- | --- |
| CN(CCCCC(=O)c1ccc2[nH]c(=O)[nH]c2c1)CCc1ccccc1.Cl | 240 °C |
| COc1ccccc1CCN(C)CCCCC(=O)c1ccc2[nH]c(=O)[nH]c2c1.Cl | 169 to 180 °C (dec.) |
| CN(CCCCC(=O)c1ccc2c(c1)n(C)c(=O)n2C)CCc1ccccc1.Cl | 142 to 157 °C (dec.) |
| COc1ccccc1CCN(C)CCCCC(=O)c1ccc2c(c1)n(C)c(=O)n2C.Cl | 125 to 140 °C (dec.) |
| Cl.O=C(CCCCNCCc1ccccc1Cl)c1ccc2[nH]c(=O)[nH]c2c1 | 233 °C |
| Cl.Cn1c(=O)n(C)c2cc(C(=O)CCCCNCCc3ccccc3)ccc21 | 187 to 189 °C |
| COc1ccc(CCNCCCCC(=O)c2cc3c4c(c2)CCN4C(=O)CC3)cc1.Cl | 179 to 181 °C |
| Cl.O=C(CCCCNCCc1ccc(Cl)cc1)c1cc2c3c(c1)CCN3C(=O)CC2 | 193 to 195 °C |
| Cl.O=C(CCCCNCCc1c(Cl)cccc1Cl)c1cc2c3c(c1)CCN3C(=O)CC2 | 171 to 174 °C |
| COc1cccc(CCNCCCCC(=O)c2cc3c4c(c2)CCN4C(=O)CC3)c1OC.Cl | 154 to 156 °C |
| COc1ccc(C(=O)CCCCNCCc2ccccc2)cc1S(N)(=O)=O.Cl | 160 to 168 °C |
| COc1ccccc1CCNCCCCC(=O)c1ccc(OC)c(S(N)(=O)=O)c1.Cl | 139 to 141 °C |
| COc1ccc(C(=O)CCCCNCCc2ccccc2Cl)cc1S(N)(=O)=O.Cl | 161 to 163 °C |
| COc1ccccc1CCNCCCCC(=O)c1ccc(OC)c(S(=O)(=O)NC(C)C)c1.Cl | 164 to 166 °C |
| COc1ccc(C(=O)CCCCNCCc2ccccc2Cl)cc1S(=O)(=O)NC(C)C.Cl | 179 to 181 °C |
| Cl.NS(=O)(=O)c1cc(C(=O)CCCCNCCc2ccccc2Cl)cc2c1OCC2 | 160 to 170 °C |
| COc1ccccc1CCNCCCCC(=O)c1cc2c(c(S(=O)(=O)NC(C)C)c1)OCC2.Cl | 157 to 159 °C |
| CC(C)NS(=O)(=O)c1cc(C(=O)CCCCNCCc2ccccc2Cl)cc2c1OCC2.Cl | 149 to 151 °C |
| Cl.NS(=O)(=O)c1cc(C(=O)CCCCNCCc2ccccc2)cc2c1OCCO2 | 152 to 154 °C |
| COc1ccccc1CCNCCCCC(=O)c1cc2c(c(S(N)(=O)=O)c1)OCCO2.Cl | 166 to 168 °C |
| Cl.NS(=O)(=O)c1cc(C(=O)CCCCNCCc2ccccc2Cl)cc2c1OCCO2 | 178 to 180 °C |
| COc1ccc(C(=O)CCCCNCCc2ccccc2)cc1NS(C)(=O)=O.Cl | 131 to 133 °C |
| COc1ccccc1CCNCCCCC(=O)c1ccc(OC)c(NS(C)(=O)=O)c1.Cl | 129 to 131 °C |
| COc1ccc(C(=O)CCCCNCCc2ccccc2Cl)cc1NS(C)(=O)=O.Cl | 133 to 135 °C |
| COc1ccc(C(=O)CCCCCNCCc2ccccc2)cc1NS(C)(=O)=O.Cl | 136 to 138 °C |
| COc1ccccc1CCNCCCCCC(=O)c1ccc(OC)c(NS(C)(=O)=O)c1.Cl | 142 to 144 °C |
| COc1ccc(C(=O)CCCCCNCCc2ccccc2Cl)cc1NS(C)(=O)=O.Cl | 112 to 115 °C |

| SMILES | melting point |
| --- | --- |
| COc1ccccc1CCNCCCCC(=O)c1c[nH]c2ccccc12.Cl | 143 to 145 °C |
| Cl.O=C(CCCCNCCc1ccccc1Cl)c1c[nH]c2ccccc12 | 149 to 151 °C |
| Cl.O=C(CCCCCNCCc1ccccc1Cl)c1c[nH]c2ccccc12 | 151 to 153 °C |
| COc1ccccc1CCNCCCCC(=O)c1cccs1.Cl | 101 to 103 °C |
| Cl.O=C(CCCCNCCc1ccccc1Cl)c1cccs1 | 146 to 147 °C |
| COc1ccccc1CCNCCCCCC(=O)c1cccs1.Cl | 107 to 109 °C |
| Cl.O=C(CCCCCNCCc1ccccc1Cl)c1cccs1 | 149 to 151 °C |
| Cl.O=C1CCc2cc(C(=O)[C@H]3CC[C@H](CNCCc4ccccc4Cl)CC3)cc3c2N1CC3 | 271 °C |
| COc1cccc(CCNCCCCCC(=O)c2cc3c4c(c2)CCN4C(=O)CC3)c1.Cl | 136 to 138 °C |
| COc1ccc(CCNCCCCCC(=O)c2cc3c4c(c2)CCN4C(=O)CC3)cc1.Cl | 179 to 180 °C |
| COc1cccc(CCN(C)CCCCCC(=O)c2cc3c4c(c2)CCN4C(=O)CC3)c1.Cl | 116 to 118 °C |
| Cl.O=C1NCc2cc(C(=O)CCCCNCCc3ccccc3)ccc2N1 | 199 to 205 °C (dec.) |
| COc1ccccc1CCNCCCCC(=O)c1ccc2c(c1)CNC(=O)N2.Cl | 176 to 180 °C (dec.) |
| Cl.O=C1NCc2cc(C(=O)CCCCNCCc3ccccc3Cl)ccc2N1 | 176 to 185 °C (dec.) |
| CN(CCCCC(=O)c1ccc2c(c1)CNC(=O)N2)CCc1ccccc1.Cl | 164 to 166 °C |
| COc1ccccc1CCN(C)CCCCC(=O)c1ccc2c(c1)CNC(=O)N2.Cl | 170 to 171 °C (dec.) |
| CN(CCCCC(=O)c1ccc2c(c1)CNC(=O)N2)CCc1ccccc1Cl.Cl | 192 to 195 °C (dec.) |
| CN(CCCCC(=O)c1ccc2c(c1)CN(C)C(=O)N2C)CCc1ccccc1.Cl | 174 to 176 °C |
| COc1ccccc1CCN(C)CCCCC(=O)c1ccc2c(c1)CN(C)C(=O)N2C.Cl | 145 to 146 °C |
| CN(CCCCC(=O)c1ccc2c(c1)CN(C)C(=O)N2C)CCc1ccccc1Cl.Cl | 187 to 188 °C |
| COc1cccc(CCNCCCCC(=O)c2cc3c4c(c2)CCN4C(=O)CC3)c1.Cl | 97 to 100 °C |
| CCOc1ccccc1OCCN1CCC(CCC(=O)c2ccc(OC)c(NC(C)=O)c2)CC1.Cl | 127 to 129 °C |
| COc1cc2c(cc1OC)CN(CCCCC(=O)c1cc3c4c(c1)CCN4C(=O)CC3)CC2.Cl | 215 to 217 °C |
| COc1cc2c(cc1OC)CN(CCCCCC(=O)c1cc3c4c(c1)CCN4C(=O)CC3)CC2.Cl | 216 to 218 °C |
| COc1ccccc1CCNCCCCC(=O)c1cc2c3c(c1)CC(=O)N3CCC2.Cl | 169 to 170 °C |
| COc1ccc(CCNCCCCC(=O)c2cc3c4c(c2)CCN4C(=O)CC3)cc1S(N)(=O)=O.Cl | 145 °C (dec.) |
| CCOc1ccccc1OCCN1CCC(CCC(=O)c2ccc(OC)c(N)c2)CC1 (as salt: hydrochloride) | 123 to 125 °C |

More lines, now with the values ahead:

| melting point | SMILES |
| --- | --- |
| 166 to 168 °C | Cl.O=C(CCCCNCCc1ccccc1)c1cc2c3c(c1)CCN3C(=O)CC2 |
| 112 to 113 °C | Cl.O=C(CCCCNCCc1ccccc1O)c1cc2c3c(c1)CCN3C(=O)CC2 |
| 94 to 96 °C | COc1ccccc1CCNCCCCC(=O)c1cc2c3c(c1)CCN3C(=O)CC2.Cl |
| 172 to 174 °C | Cl.O=C(CCCCCNCCc1ccccc1Cl)c1cc2c3c(c1)CCN3C(=O)CC2 |
| 83 to 85 °C | CN(CCCCCC(=O)c1cc2c3c(c1)CCN3C(=O)CC2)CCc1ccccc1.Cl |
| 165 to 167 °C | COc1ccccc1CCNCCCC(=O)c1cc2c3c(c1)CCN3C(=O)CC2.Cl |
| 181 to 183 °C | Cl.O=C(CCCCCNCc1ccccc1)c1cc2c3c(c1)CCN3C(=O)CC2 |
| 209 to 211 °C | COc1ccccc1CCN1CCC(CCC(=O)c2cc3c4c(c2)CCN4C(=O)CC3)CC1.Cl |
| 240 to 242 °C | COc1cccc(CCN2CCC(CCC(=O)c3cc4c5c(c3)CCN5C(=O)CC4)CC2)c1.Cl |
| 141 to 143 °C | COc1ccc(CCN2CCC(CCC(=O)c3cc4c5c(c3)CCN5C(=O)CC4)CC2)cc1.Cl |
| 182 to 184 °C | CCOc1ccccc1CCN1CCC(CCC(=O)c2cc3c4c(c2)CCN4C(=O)CC3)CC1.Cl |
| 220 to 222 °C | Cl.O=C(CCC1CCN(CCc2ccccc2O)CC1)c1cc2c3c(c1)CCN3C(=O)CC2 |
| 197 to 199 °C | Cc1cccc(CCN2CCC(CCC(=O)c3cc4c5c(c3)CCN5C(=O)CC4)CC2)c1.Cl |
| 207 to 210 °C | Cl.O=C(CCC1CCN(CCc2ccccc2Cl)CC1)c1cc2c3c(c1)CCN3C(=O)CC2 |
| 204 to 206 °C | Cl.O=C(CCC1CCN(CCc2ccc(Cl)cc2)CC1)c1cc2c3c(c1)CCN3C(=O)CC2 |
| 217 to 219 °C | Cl.O=C(CCC1CCN(CCc2ccc([N+](=O)[O-])cc2)CC1)c1cc2c3c(c1)CCN3C(=O)CC2 |
| 226 to 229 °C | Cl.O=C(CCC1CCN(CCc2c(Cl)cccc2Cl)CC1)c1cc2c3c(c1)CCN3C(=O)CC2 |

| melting point | SMILES |
| --- | --- |
| 157 to 159 °C | Cl.O=C(CCC1CCN(CCc2c[nH]c3ccccc23)CC1)c1cc2c3c(c1)CCN3C(=O)CC2 |
| 114 to 116 °C | Cl.O=C(CCC1CCN(CC(=O)c2ccccc2)CC1)c1cc2c3c(c1)CCN3C(=O)CC2 |
| 230 to 232 °C | Cl.O=C(CCCN1CCCc2ccccc2C1)c1cc2c3c(c1)CCN3C(=O)CC2 |
| 121 to 123 °C | COc1ccc2c(c1)CCCN(CCCC(=O)c1cc3c4c(c1)CCN4C(=O)CC3)C2.Cl |
| 187 to 189 °C | Cl.O=C(CCCCNC1Cc2ccccc2C1)c1cc2c3c(c1)CCN3C(=O)CC2 |
| 222 to 225 °C | Cl.O=C(CCCCCN1CCc2ccccc2CC1)c1cc2c3c(c1)CCN3C(=O)CC2 |
| 116 to 118 °C | Cl.O=C(CCCCNCCCc1ccccc1)c1cc2c3c(c1)CCN3C(=O)CC2 |
| 128 to 130 °C | Cl.O=C(CCCCNCCc1ccccc1Cl)c1cc2c3c(c1)CCN3C(=O)CC2 |
| 172 to 173 °C | Cl.O=C(CCCCNCCc1cccc(F)c1)c1cc2c3c(c1)CCN3C(=O)CC2 |
| 195 to 197 °C | Cl.O=C(CCCCCN1CCCc2ccccc2C1)c1cc2c3c(c1)CCN3C(=O)CC2 |
| 215 to 216 °C | Cc1ccccc1CCN1CCC(CCC(=O)c2cc3c4c(c2)CCN4C(=O)CC3)CC1.Cl |
| 210 to 212 °C | Cl.O=C(CCC1CCN(CCc2ccccc2F)CC1)c1cc2c3c(c1)CCN3C(=O)CC2 |
| 223 to 225 °C | Cl.O=C(CCC1CCN(CCc2cccc(Cl)c2)CC1)c1cc2c3c(c1)CCN3C(=O)CC2 |
| 290 °C (dec.) | Cl.O=C(CCC1CCN(C2Cc3ccccc3C2)CC1)c1cc2c3c(c1)CCN3C(=O)CC2 |
| 173 to 175 °C | Cl.O=C(CCC1CCN(CCCc2ccccc2)CC1)c1cc2c3c(c1)CCN3C(=O)CC2 |
| 219 to 221 °C | O=C(CCC1CCN(CCc2ccccc2)CC1)c1cc2c3c(c1)CCN3C(=O)CC2 (as salt: hydrochloride) |
| 98 to 100 °C | Cl.O=C(CCCCNC1CCc2ccccc21)c1cc2c3c(c1)CCN3C(=O)CC2 (racemic) |

Reference: patent US7132547B2, “Preventives/remedies for urinary disturbance” (priority 2001, dated 2006)
